{
  "source": "patent US6376426B1",
  "about": "“Herbicidal 3-(heterocycl-1-yl)-uracils” (BASF Aktiengesellschaft, priority 1999, dated 2002)",
  "type_in_all_cases": "in vivo",
  "key": {"[1]": {"test_system": "Zea mays", "test": "Post-emergence herbicidal test, ZEAMX", "design": "key: A rating 0 indicates growth as untreated control; a rating 9 indicates death", "conditions": "0-9 scale, 21 days after spraying", "how_it_was_run": "(§1)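 Herbicidal effect is recorded on a linear 0-9 scale, where 0 means growth like untreated control and 9 means death, with one unit approximating 10% more effect.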"}, "[2]": {"test_system": "Zea mays", "test": "Pre-emergence herbicidal test, ZEAMX", "design": "key to herbicidal effect (0-9 scale) ZEAMX / herbicidal rating ZEAMX: A rating 0 indicates growth as untreated control; a rating 9 indicates death", "conditions": "for herbicidal rating ZEAMX: PRE, 0-9 scale, 21 days after spraying"}, "[3]": {"test_system": "Stellaria media", "test": "Post-emergence herbicidal test, STEME", "design": "key to herbicidal effect (0-9 scale) STEME / herbicidal rating STEME: A rating 0 indicates growth as untreated control; a rating 9 indicates death", "conditions": "for herbicidal rating STEME: POST, 0-9 scale, 21 days after spraying", "how_it_was_run": "as §1"}, "[4]": {"test_system": "Stellaria media", "test": "Pre-emergence herbicidal test, STEME", "design": "key to herbicidal effect (0-9 scale) STEME / herbicidal rating STEME: A rating 0 indicates growth as untreated control; a rating 9 indicates death", "conditions": "for herbicidal rating STEME: PRE, 0-9 scale, 21 days after spraying"}, "[5]": {"test_system": "representative range of plants", "test": "Herbicidal activity, pre- and post-emergence, overall", "conditions": "both in pre- and post-emergence", "protocol": "To evaluate their herbicidal activity, compounds according to the invention are tested using a representative range of plants:\nThe pre-emergence tests involve spraying a liquid formulation of the compound onto the soil in which the seeds of the plant species mentioned above has recently been sown.\nThe soil used in the tests is a prepared horticultural loam. The formulations used in the tests are prepared from solutions of the test compounds in acetone containing 0.4% by weight of an alkylphenol/ethylene oxide condensate available under the trade mark TRITON X-155. These acetone solutions are diluted with water and the resulting formulations applied at dosage levels corresponding to 1000 g and 250 g/ha of active material per hectare in a volume equivalent to 900 litres per hectare. In these tests untreated sown soil are used as controls.\nThese acetone solutions are diluted with water and the resulting formulations applied at dosage levels equivalent to about 1000, 800, 400, 250 or 100 g/ha per hectare of test compound per pot. After spraying, the plants are placed on greenhouse benches and are cared for in the usual manner, commensurate with conventional greenhouse practices.\nThe herbicidal effects of the test compounds are assessed visually twenty-one days after spraying the foliage and the soil and are recorded on a 0-9 scale. A rating 0 indicates growth as untreated control, a rating 9 indicates death. An increase of 1 unit on the linear scale approximates to a 10% increase in the level of effect."}},
  "data": [
    {"smiles": "Cn1c(C(F)(F)F)cc(=O)n(-n2ccc3c(Cl)cccc32)c1=O", "note": "[Example 169, 3-(4-Chloro-indol-1-yl)-1-methyl-6-trifluoromethylpyrimidine-2,4-dione]", "values": [
      {"measurement": "herbicidal rating ZEAMX", "setting": "[1]; 25 g/ha", "value": 0},
      {"measurement": "herbicidal rating ZEAMX", "setting": "[1]; 100 g/ha", "value": 3},
      {"measurement": "herbicidal rating ZEAMX", "setting": "[1]; 400 g/ha", "value": 5},
      {"measurement": "herbicidal rating ZEAMX", "setting": "[2]; 12.5 g/ha", "value": 0},
      {"measurement": "herbicidal rating ZEAMX", "setting": "[2]; 25 g/ha", "value": 1},
      {"measurement": "herbicidal rating ZEAMX", "setting": "[2]; 100 g/ha", "value": 3},
      {"measurement": "herbicidal rating ZEAMX", "setting": "[2]; 400 g/ha", "value": 7},
      {"measurement": "selectivity in maize", "setting": "[2]; pre-emergence, 25 g/ha", "value": "Surprisingly good selectivity"},
      {"measurement": "herbicidal rating STEME", "setting": "[3]; 25 g/ha", "value": 8},
      {"measurement": "herbicidal rating STEME", "setting": "[3]; 100 g/ha", "value": 9},
      {"measurement": "herbicidal rating STEME", "setting": "[3]; 400 g/ha", "value": 9},
      {"measurement": "control of Stellaria", "setting": "[3]; post-emergence, 12.5 g/ha", "value": "excellent control"},
      {"measurement": "herbicidal rating STEME", "setting": "[4]; 12.5 g/ha", "value": 6},
      {"measurement": "herbicidal rating STEME", "setting": "[4]; 25 g/ha", "value": 8},
      {"measurement": "herbicidal rating STEME", "setting": "[4]; 100 g/ha", "value": 9},
      {"measurement": "herbicidal rating STEME", "setting": "[4]; 400 g/ha", "value": 9},
      {"measurement": "control of Stellaria", "setting": "[4]; pre-emergence, 25 g/ha", "value": "good control"},
      {"measurement": "herbicidal performance", "setting": "[5]", "value": "excellent performance"}
    ]}
  ]
}
